Experimental data as given in the NIST ThermoML archive (doi:10.1016/j.tca.2018.05.017).
Numbers after ± are expanded uncertainties.

Details: Crystal; DTA

Normal melting temperature: 72.20 ± 5 °C
Structure (SMILES): CCCCCCCC[NH+](CCCCCCCC)CCCCCCCC.[Cl-] [trioctylammonium chloride]
